Assay: xn = mol fraction of the nth substance listed
Details: 100.7 kPa, Liquid; for viscosity: Falling or rolling sphere viscometry; for speed of sound: Frequency=3 MHz, Sing-around technique in a fixed-path interferometer; for mass density: Vibrating tube method

CCCC=O [butanal] + CCCC[n+]1ccn(C)c1.O=S(=O)([N-]S(=O)(=O)C(F)(F)F)C(F)(F)F
Details	mass density [kg/m3]	speed of sound [m/s]	viscosity [mPa·s]
298.15 K, x2 = 0	796.99	1193.8	0.43
298.15 K, x2 = 0.0222	–	1192	–
298.15 K, x2 = 0.0464	–	1190.7	–
298.15 K, x2 = 0.0748	–	1189.2	–
298.15 K, x2 = 0.1056	979.73	1187.5	1.53
298.15 K, x2 = 0.2135	1105.53	1191.7	3.32
298.15 K, x2 = 0.3088	1185.23	1196.2	5.62
298.15 K, x2 = 0.4153	1251.86	1200.5	8.98
298.15 K, x2 = 0.5025	1294.27	1204.2	12.42
298.15 K, x2 = 0.5987	1332.31	1208.6	16.22
298.15 K, x2 = 0.6852	1360.82	1213.2	20.37
298.15 K, x2 = 0.7729	1385.61	1217.5	25.55
298.15 K, x2 = 0.8852	1412.72	1223.9	34.29
303.15 K, x2 = 0	791.8	1172.7	0.4
303.15 K, x2 = 0.0222	–	1171.6	–
303.15 K, x2 = 0.0464	–	1170.9	–
303.15 K, x2 = 0.0748	–	1170	–
303.15 K, x2 = 0.1056	975.4	1169	1.24
303.15 K, x2 = 0.2135	1101.73	1173.6	2.62
303.15 K, x2 = 0.3088	1181.18	1179.9	4.29
303.15 K, x2 = 0.4153	1247.94	1185.4	6.76
303.15 K, x2 = 0.5025	1290.44	1189.5	9.23
303.15 K, x2 = 0.5987	1328.49	1195.7	12.08
303.15 K, x2 = 0.6852	1356.74	1200.6	15.05
303.15 K, x2 = 0.7729	1381.37	1206.6	19.07
303.15 K, x2 = 0.8852	1408.37	1213.6	26.85
308.15 K, x2 = 0	786.41	1151.6	0.39
308.15 K, x2 = 0.0222	–	1150.1	–
308.15 K, x2 = 0.0464	–	1149.4	–
308.15 K, x2 = 0.0748	–	1148.8	–
308.15 K, x2 = 0.1056	971.06	1149.6	0.98
308.15 K, x2 = 0.2135	1097.08	1154.8	1.98
308.15 K, x2 = 0.3088	1176.97	1161.6	3.18
308.15 K, x2 = 0.4153	1243.96	1168.7	4.87
308.15 K, x2 = 0.5025	1286.66	1174.3	6.66
308.15 K, x2 = 0.5987	1324.67	1180.5	8.73
308.15 K, x2 = 0.6852	1352.96	1186.4	10.93
308.15 K, x2 = 0.7729	1377.44	1193.6	14.71
308.15 K, x2 = 0.8852	1404.09	1201	21.85
313.15 K, x2 = 0	781.37	1130.6	0.36
313.15 K, x2 = 0.0222	–	1129.3	–
313.15 K, x2 = 0.0464	–	1128.5	–
313.15 K, x2 = 0.0748	–	1127.9	–
313.15 K, x2 = 0.1056	966.81	1129.2	0.8
313.15 K, x2 = 0.2135	1092.97	1136.5	1.53
313.15 K, x2 = 0.3088	1173.06	1144.7	2.39
313.15 K, x2 = 0.4153	1240.28	1152.6	3.69
313.15 K, x2 = 0.5025	1282.97	1159.6	5.13
313.15 K, x2 = 0.5987	1320.95	1166.8	6.82
313.15 K, x2 = 0.6852	1349.19	1174.2	8.86
313.15 K, x2 = 0.7729	1373.41	1181.8	11.8
313.15 K, x2 = 0.8852	1399.8	1189.6	17.93
318.15 K, x2 = 0	776.39	1109.6	0.35
318.15 K, x2 = 0.0222	–	1108.4	–
318.15 K, x2 = 0.0464	–	1107.7	–
318.15 K, x2 = 0.0748	–	1107	–
318.15 K, x2 = 0.1056	961.43	1109	0.69
318.15 K, x2 = 0.2135	1088.71	1118.4	1.23
318.15 K, x2 = 0.3088	1169.26	1128.2	1.96
318.15 K, x2 = 0.4153	1236.78	1137.7	2.96
318.15 K, x2 = 0.5025	1279.56	1145.2	4.06
318.15 K, x2 = 0.5987	1317.62	1153.1	5.62
318.15 K, x2 = 0.6852	1345.51	1162.1	7.72
318.15 K, x2 = 0.7729	1369.39	1170.1	10.43
318.15 K, x2 = 0.8852	1395.55	1179.3	15.49
323.15 K, x2 = 0	771.3	1088.8	0.32
323.15 K, x2 = 0.0222	–	1087.5	–
323.15 K, x2 = 0.0464	–	1086.7	–
323.15 K, x2 = 0.0748	–	1086.1	–
323.15 K, x2 = 0.1056	957.54	1087.8	0.56
323.15 K, x2 = 0.2135	1084.6	1099.2	0.94
323.15 K, x2 = 0.3088	1165.17	1110.2	1.43
323.15 K, x2 = 0.4153	1232.87	1120.3	2.24
323.15 K, x2 = 0.5025	1275.6	1128.5	3.07
323.15 K, x2 = 0.5987	1313.47	1138.5	4.43
323.15 K, x2 = 0.6852	1341.63	1147.2	6.21
323.15 K, x2 = 0.7729	1365.48	1156.5	8.42
323.15 K, x2 = 0.8852	1391.08	1166.2	12.99
